The values below come from PMC6501426 (Clinical Epigenetics, 2019).

Molecules are shown by their SMILES.

One test deals with KG-1 cells. Put plainly: Nuclear morphology analysis (Hoechst/PI). The format is cell-based, human. The note with it: 72 h; considerable increase between 0.5 and 1 μM. The method, then:
(§1) Proliferation and viability of U-937, KG-1, RAJI, PC-3, MDA-MB-231, RPMI1788, PBMCs, and PHA_PBMCs were assessed by trypan blue exclusion assays at the indicated time points. Nuclear morphology changes associated with apoptosis and necrosis were evaluated by fluorescence microscopy after Hoechst and propidium iodide (PI) staining as previously described.
(§2) Fig. 6 Nuclear morphology analysis in U-937, RAJI, KG-1, and RPMI1788 cells. Cells were treated with increasing doses of MC3353. Upper panels—after 72 h of treatment, the nuclear morphology was analyzed by fluorescence microscopy after Hoechst and PI staining. Pictures are representative of three independent experiments. Lower panels—the results of cell counting are represented as the mean (± SD) of three independent experiments

The test system of the next test is U-937 cells. Put plainly: Nuclear morphology analysis (Hoechst/PI). The test is classed as cell-based, human. The note with it: 72 h; considerable increase between 0.5 and 1 μM. The method, then:
as §1, §2

A further test relates to RAJI cells. Put plainly: Nuclear morphology analysis (Hoechst/PI). The note with it: 72 h; drastic increase in cell death rate between 0.5 and 1 μM. The test is classed as cell-based, human. The protocol: as §1, §2
The test system of the next test is Saos-2 cells. Put plainly: Saos-2 matrix mineralization, Alizarin red staining. The note with it: 7–21 days, differentiation medium. The format is cell-based, human. The method, then:
Four days after seeding, Saos-2 cells were exposed to specific osteogenic medium (IMDM supplemented with 2% FBS, 5 mM β-glycerophosphate, and 50 μg/mL ascorbic acid, Sigma-Aldrich, Milan, Italy) without (control) or with MC3353 (0.5–1 μM) or DAC (0.1–0.5 μM) and maintained in differentiating conditions for up to 21 days. The medium was renewed every 4 days, and the cells were harvested at various time points to collect total RNA and verify bone mineralization. Specific osteoblastic markers were evaluated by quantitative real-time PCR (RT-qPCR) as previously described. The primers or assays (Applied Biosystems, Foster City, CA, USA) used are as follows: GAPDH (forward: 5′-[…]-3′, reverse: 5′-[…]-3′ and probe: 5′-[…]-3′), OCN (forward: 5′-[…]-3′, reverse: 5′-[…]-3′), ALP (Hs01029144_m1), and COL1A2 (Hs01028970_m1). Amplification reactions were performed using a ViiA7™ Real-Time PCR System (Life Technologies, Carlsbad, CA, USA). To visualize bone mineralization (osteoblastic differentiation) after 7–21 days of MC3353 or DAC treatment, the plates were stained with 40 mM Alizarin red stain (ARS, Sigma-Aldrich, Milan, Italy). ARS staining was visualized with an ECLIPSE 90i microscope (Nikon, Minato, Tokyo, Japan) equipped with Plan fluor 10× NA 0.3. […]

The target in a further test is T1, human C-terminal DNMT3A (Homo sapiens, UniProt Q9Y6K1).
T1 construct: the C-terminal catalytic domain of human DNMT3A (hDNMT3A)
Nature of the test: DNMT3A restriction-based fluorescence assay. The test is classed as biochemical. The protocol: DNMT3A enzyme inhibition was adapted from the restriction-based fluorescence assay protocol described in Ceccaldi et al.. Briefly, it is performed in a 384-well microplate in a total volume of 50 μL. An oligonucleotide labeled at the 5′ end with biotin is hybridized to his complementary strand labeled at the 3′ end with 6-carboxyfluorescein. The DNA duplex thus formed contains only one single CpG site overlapping with a restriction site of a methylation sensitive restriction enzyme. The duplex is transferred in the wells coated with avidin. Thus, the duplex is fixed to the plate. The methylation reaction is performed by adding human C-terminal DNMT3A at the final concentration of 4 ng/μL in a total volume of 50 μL in the presence of the chemical compound to be tested at the desired concentration and the cofactor SAM at the final concentration of 20 μM. After incubation (1 h at 37 °C), the plate is washed and the methylation sensitive restriction enzyme HpyCH4IV is added. After 1-h incubation at 37 °C, the plate is washed and the fluorescence measured with a PerkinElmer Envision Multilabel Plate Reader (PerkinElmer, Villebon-sur-Yvette, France). The data are expressed as a percentage of inhibition vs. log concentration (M). Data are normalized referring to the “restriction control” (wells coated with labeled duplex not treated nor exposed to DNMT3A, but only cleaved by HpyCH4IV) as the maximum of inhibition (100%) and to the “DMSO control” (wells coated with labeled duplex but treated just with 0.1% DMSO exposed to DNMT3A and then to HpyCH4IV) as the minimum of inhibition (0%; total methylation).

Test [1] concerns COL1A2 expression in Saos-2 cells. Put plainly: Saos-2 osteoblast differentiation, RT-qPCR. The test is classed as cell-based, human. The note with it: 0.5 and 1 μM, along 3 weeks, osteogenic medium. The method, then:
(§3) Four days after seeding, Saos-2 cells were exposed to specific osteogenic medium (IMDM supplemented with 2% FBS, 5 mM β-glycerophosphate, and 50 μg/mL ascorbic acid, Sigma-Aldrich, Milan, Italy) without (control) or with MC3353 (0.5–1 μM) or DAC (0.1–0.5 μM) and maintained in differentiating conditions for up to 21 days. The medium was renewed every 4 days, and the cells were harvested at various time points to collect total RNA and verify bone mineralization. Specific osteoblastic markers were evaluated by quantitative real-time PCR (RT-qPCR) as previously described. The primers or assays (Applied Biosystems, Foster City, CA, USA) used are as follows: GAPDH (forward: 5′-[…]-3′, reverse: 5′-[…]-3′ and probe: 5′-[…]-3′), OCN (forward: 5′-[…]-3′, reverse: 5′-[…]-3′), ALP (Hs01029144_m1), and COL1A2 (Hs01028970_m1). Amplification reactions were performed using a ViiA7™ Real-Time PCR System (Life Technologies, Carlsbad, CA, USA). To visualize bone mineralization (osteoblastic differentiation) after 7–21 days of MC3353 or DAC treatment, the plates were stained with 40 mM Alizarin red stain (ARS, Sigma-Aldrich, Milan, Italy). ARS staining was visualized with an ECLIPSE 90i microscope (Nikon, Minato, Tokyo, Japan) equipped with Plan fluor 10× NA 0.3. Images were acquired with an autocapture setting using a digital color camera (Nikon DS5 MC) and NIS-Elements AR3.10 software (Nikon, Minato, Tokyo, Japan).
In general terms: Real-time PCR tracks product formation cycle by cycle.

The test system of test [2] is OCN expression in Saos-2 cells. Nature of the test: Saos-2 osteoblast differentiation, RT-qPCR. The format is cell-based, human. The note with it: 0.5 and 1 μM, along 3 weeks, osteogenic medium. The method, then: as §3
Test [3] deals with ALP expression in Saos-2 cells. Put plainly: Saos-2 osteoblast differentiation, RT-qPCR. The test is classed as cell-based, human. The note with it: 0.5 and 1 μM, only at the most extended exposure (day 21). The method, then:
as §3

By EC50 is commonly meant the concentration giving half of the maximal effect.

T1 sequence (Q9Y6K1 634-912 limits assumed): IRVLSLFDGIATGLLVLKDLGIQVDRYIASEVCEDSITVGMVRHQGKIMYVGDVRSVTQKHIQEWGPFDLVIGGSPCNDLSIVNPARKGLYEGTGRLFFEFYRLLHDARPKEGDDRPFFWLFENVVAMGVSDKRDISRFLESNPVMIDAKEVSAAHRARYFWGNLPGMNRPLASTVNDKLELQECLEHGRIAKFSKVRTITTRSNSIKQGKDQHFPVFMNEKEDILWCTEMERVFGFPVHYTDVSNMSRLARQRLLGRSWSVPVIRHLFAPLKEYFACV

For `O=C(Nc1ccc(NC(=O)c2ccc(Nc3ccnc4ccccc34)cc2)cc1)OCc1ccccc1` [MC3353, Benzyl (4-(4-(quinolin-4-ylamino)benzamido)phenyl)carbamate], the “cell death modality, KG-1” value with KG-1 cells is listed as “induced mainly apoptosis”. In addition, the “cell death modality, U-937” value in the test with U-937 cells is listed as “induced mainly apoptosis”. The “cell death modality, RAJI” value in the test on RAJI cells was “shift from apoptosis to necrosis”. The “mineralized matrix production (ARS staining), Saos-2” value with Saos-2 cells was “augment mineralized matrix production”. Moreover, the EC50 at human C-terminal DNMT3A (fluorescent assay, C-terminal catalytic domain, read-out: EC50 ± SD, hDNMT3A) turned out to be 17 ± 3 µM. At human C-terminal DNMT3A (ratio of EC50 values), the “fold higher potency than RG-108 against hDNMT3A” value is given as over 29 fold and the “fold lower potency than SGI-1027 against hDNMT3A” value came to 20 fold. For the same compound, the “COL1A2 expression, Saos-2” value in test [1] is on record as “dose-dependently decreased COL1A2 expression”. Further, in test [2], the “OCN expression, Saos-2” value is recorded as “increased OCN expression”. Also, the “ALP expression, Saos-2” value in test [3] is “weak induction of ALP expression”.
